Source: patent US20020172670A1 (priority 2000, published 2002)

Legend:
[1] = biological target: T1, dGMII (Drosophila melanogaster, UniProt Q24451); settings: cited from earlier work
T1 construct: The resulting constructs consist of the dGMII catalytic region with a short length of the stalk region; Bip secretion signal (N); made in house; host or cells: Drosophila Schneider S2 cells, stably transfected, protein secreted into the medium
T1 sequence (Q24451 76-1108): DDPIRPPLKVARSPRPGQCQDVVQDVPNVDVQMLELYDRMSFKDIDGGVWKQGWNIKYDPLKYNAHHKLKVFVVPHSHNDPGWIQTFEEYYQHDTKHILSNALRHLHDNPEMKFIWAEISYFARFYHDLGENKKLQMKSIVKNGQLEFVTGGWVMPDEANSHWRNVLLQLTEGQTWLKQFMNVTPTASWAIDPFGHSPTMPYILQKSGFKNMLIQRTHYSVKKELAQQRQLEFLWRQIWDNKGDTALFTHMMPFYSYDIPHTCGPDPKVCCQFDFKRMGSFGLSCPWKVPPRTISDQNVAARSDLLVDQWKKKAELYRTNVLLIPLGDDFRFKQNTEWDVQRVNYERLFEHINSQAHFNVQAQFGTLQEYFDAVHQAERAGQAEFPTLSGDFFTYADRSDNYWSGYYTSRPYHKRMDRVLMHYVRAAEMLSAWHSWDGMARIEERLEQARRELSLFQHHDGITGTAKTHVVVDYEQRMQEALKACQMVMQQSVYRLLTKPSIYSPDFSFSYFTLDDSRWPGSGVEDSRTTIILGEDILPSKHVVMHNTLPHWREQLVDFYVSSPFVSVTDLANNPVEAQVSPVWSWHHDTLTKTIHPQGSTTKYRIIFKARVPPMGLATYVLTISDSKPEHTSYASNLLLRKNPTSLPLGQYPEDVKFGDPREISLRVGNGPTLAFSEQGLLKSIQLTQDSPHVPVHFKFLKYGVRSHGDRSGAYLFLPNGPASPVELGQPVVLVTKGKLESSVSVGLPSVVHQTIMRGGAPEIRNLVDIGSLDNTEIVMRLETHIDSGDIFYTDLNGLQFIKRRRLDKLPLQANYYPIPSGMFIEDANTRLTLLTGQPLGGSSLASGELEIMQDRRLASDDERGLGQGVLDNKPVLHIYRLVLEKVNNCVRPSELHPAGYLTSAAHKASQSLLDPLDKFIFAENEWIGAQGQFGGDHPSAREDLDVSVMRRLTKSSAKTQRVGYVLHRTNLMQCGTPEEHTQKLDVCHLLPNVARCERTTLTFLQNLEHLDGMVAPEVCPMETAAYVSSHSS

[2] = biological target: T2, dGMII (Drosophila melanogaster, UniProt Q24451); experiment: binding affinity of inhibitors for dGMII; settings: relative to DMNJ; data not shown
T2 sequence (Q24451 1-1108): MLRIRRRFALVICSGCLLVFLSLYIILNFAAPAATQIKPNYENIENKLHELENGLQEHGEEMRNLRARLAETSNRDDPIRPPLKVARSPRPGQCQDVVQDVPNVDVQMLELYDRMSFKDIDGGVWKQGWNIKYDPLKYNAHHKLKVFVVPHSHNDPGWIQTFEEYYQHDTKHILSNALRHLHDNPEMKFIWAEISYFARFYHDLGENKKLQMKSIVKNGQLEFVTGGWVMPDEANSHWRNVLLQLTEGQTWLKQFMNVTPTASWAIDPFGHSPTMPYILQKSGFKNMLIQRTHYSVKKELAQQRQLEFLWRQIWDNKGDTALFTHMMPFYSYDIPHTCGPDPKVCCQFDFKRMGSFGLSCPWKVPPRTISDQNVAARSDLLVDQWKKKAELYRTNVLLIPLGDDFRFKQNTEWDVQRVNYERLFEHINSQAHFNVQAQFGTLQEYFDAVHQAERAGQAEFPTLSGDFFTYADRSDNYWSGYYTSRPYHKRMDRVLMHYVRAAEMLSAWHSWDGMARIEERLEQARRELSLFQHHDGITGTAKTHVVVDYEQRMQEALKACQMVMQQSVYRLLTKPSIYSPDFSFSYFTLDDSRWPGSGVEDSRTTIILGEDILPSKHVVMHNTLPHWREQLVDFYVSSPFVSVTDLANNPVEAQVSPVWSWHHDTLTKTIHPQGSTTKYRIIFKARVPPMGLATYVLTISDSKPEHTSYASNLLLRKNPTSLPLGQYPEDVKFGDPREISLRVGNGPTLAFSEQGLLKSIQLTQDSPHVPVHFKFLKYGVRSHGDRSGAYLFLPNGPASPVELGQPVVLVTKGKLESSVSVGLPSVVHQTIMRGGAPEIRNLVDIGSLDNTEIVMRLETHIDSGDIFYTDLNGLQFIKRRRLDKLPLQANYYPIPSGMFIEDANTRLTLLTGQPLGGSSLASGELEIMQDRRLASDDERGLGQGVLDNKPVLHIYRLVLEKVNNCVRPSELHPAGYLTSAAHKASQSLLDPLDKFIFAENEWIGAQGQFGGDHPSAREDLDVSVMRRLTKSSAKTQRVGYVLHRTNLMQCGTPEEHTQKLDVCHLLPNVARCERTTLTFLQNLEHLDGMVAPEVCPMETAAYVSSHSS

[3] = biological target: T3, mouse GMII (Mus musculus, UniProt P27046); settings: Rabouille et al., 1999; cited from earlier work
T3 sequence (P27046 1-1150): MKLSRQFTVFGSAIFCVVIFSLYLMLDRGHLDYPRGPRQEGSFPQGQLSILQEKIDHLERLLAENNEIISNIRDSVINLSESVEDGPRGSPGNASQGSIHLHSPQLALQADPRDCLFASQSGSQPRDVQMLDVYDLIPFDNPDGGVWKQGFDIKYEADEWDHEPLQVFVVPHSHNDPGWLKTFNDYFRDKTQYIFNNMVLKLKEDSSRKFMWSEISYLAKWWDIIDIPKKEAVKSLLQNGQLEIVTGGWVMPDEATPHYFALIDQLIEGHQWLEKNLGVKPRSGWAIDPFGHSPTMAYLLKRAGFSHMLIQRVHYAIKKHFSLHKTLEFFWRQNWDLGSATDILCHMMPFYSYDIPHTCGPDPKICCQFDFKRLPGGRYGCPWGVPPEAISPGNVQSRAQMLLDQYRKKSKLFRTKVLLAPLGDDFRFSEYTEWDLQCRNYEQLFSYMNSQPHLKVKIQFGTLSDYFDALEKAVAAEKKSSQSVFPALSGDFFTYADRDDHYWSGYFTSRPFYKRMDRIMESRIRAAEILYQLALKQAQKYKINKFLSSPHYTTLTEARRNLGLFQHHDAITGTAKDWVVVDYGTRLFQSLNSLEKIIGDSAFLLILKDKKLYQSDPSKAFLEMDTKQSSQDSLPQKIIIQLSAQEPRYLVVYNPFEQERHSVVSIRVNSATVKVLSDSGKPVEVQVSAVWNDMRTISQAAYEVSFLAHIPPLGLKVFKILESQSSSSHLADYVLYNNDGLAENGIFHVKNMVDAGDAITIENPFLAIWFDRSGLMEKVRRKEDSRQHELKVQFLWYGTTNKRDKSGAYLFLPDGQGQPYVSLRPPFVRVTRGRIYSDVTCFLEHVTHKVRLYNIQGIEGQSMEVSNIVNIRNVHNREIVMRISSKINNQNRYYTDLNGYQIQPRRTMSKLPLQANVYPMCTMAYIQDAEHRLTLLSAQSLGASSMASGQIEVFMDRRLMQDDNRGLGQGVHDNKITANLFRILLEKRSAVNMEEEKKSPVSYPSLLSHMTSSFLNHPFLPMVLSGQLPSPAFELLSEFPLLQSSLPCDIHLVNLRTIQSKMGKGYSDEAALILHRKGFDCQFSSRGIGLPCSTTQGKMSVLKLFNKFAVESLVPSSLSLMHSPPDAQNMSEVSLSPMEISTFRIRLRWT

[4] = system: Drosophila Schneider (S2) cells; experiment: viability of induced S2 cells by Trypan blue exclusion; assay type: cell-based; settings: 10-20 μM cadmium, until the end of the induction period
Procedure: Initial experiments were carried out in S2 medium containing 10% bovine serum. Metal concentrations used to induce and time of induction were optimized for dGMII production. […] Cadmium has been reported to be detrimental to the growth of cells. However, at the concentrations used here, the cells continued to grow and maintain greater than 90% viability (as assessed by Trypan blue exclusion) until the end of the induction period. Cells were maintained in the continous presence of cadmium for up to three passages.

For `NC(CO)(CO)CO` [Tris, tris(hydroxymethyl)-aminomethane, reference compound], the “inhibition of dGMII activity” value ([1]; Rabouille et al., 1999) is given as “inhibit”.

With `O[C@H]1[C@H]2[C@H](O)CCCN2C[C@H]1O` [swainsonine] the “binding affinity for the enzyme, compared to the substrate-mimic DMNJ” value [2] was 10,000 times higher.

For `[Cu+2]` [copper], the “inactivation of mouse GMII” value [3] is listed as “effectively inactivate”, the “inactivation of Drosophila GMII” value ([1]; Rabouille et al., 1999) is listed as “effectively inactivate” and the IC50 ([1]; read-out: inhibition of dGMII by copper, IC50) is listed as 25 µM.

For `[Cd]` [Cadmium], the “cell viability (Trypan blue exclusion)” value [4] was “greater than 90%”.
